# Experimental data from patent publication US5698547A, “Cephalosporin antibiotics” (Microcide Pharmaceuticals, Inc., priority 1995, dated 1997).
# Where a name gives a salt, the structure may show the parent alone.
# System: S. aureus Col (Meth^R) (lac^-)
# Assay: MIC by agar dilution, S. aureus Col (Meth^R) (lac^-)
# Type: cell-based
# Details: Staphylococcus aureus; agar dilution; S. aureus Col (Meth^R) (lac^-); read-out: MIC
# Experimental: The compounds of the invention were evaluated against several β-lactamresistant bacteria strains by determining the minimum inhibitory concentration (MIC, μg/ml) of each compound with respect to each strain. The MIC, the lowest concentration of antibiotic which inhibits growth of the test organism, was determined by the agar dilution method.
# To determine the MIC for bacterial isolates, the test compound was incorporated in a series of two-fold dilutions into liquified Mueller-Hinton agar. Upon solidification, a number of different bacterial strains were spot inoculated with a replicating device onto the agar surface. […] The procedures used in these studies have been standardized by the National Committee for Clinical Laboratory Standards (NCCLS), as per the NCCLS publication entitled METHODS FOR DILUTION ANTIMICROBIAL SUSCEPTIBILITY TESTS (1991), which is incorporated herein by reference.
# Aliquots of antimicrobial agents were prepared in phosphate buffered saline (PBS) at pH 7.2. Tween 20 or DMSO was used as a solubilizing vehicle as needed. Standard methods of vortexing, sonicating and gentle heat were used to facilitate solubilizing the test agent. Typically, the concentration of the stock solution was 10× that of the highest drug concentration tested. A 1.28 mg/mL stock solution was used with a subsequent highest working concentration of 128 μg/mL. Serial two-fold dilutions were done through ≤0.25 μg/mL. Each drug level was tested in duplicate. Two-fold drug dilutions were done in sterile 50 mL tubes with a final drug volume of 5 mL. Upon the addition of 45 mL of molten agar, a 10-fold dilution resulted. Two, 25 mL. plates were then poured into 15×150 mm square Petri plates with grids and allowed to harden.
# A control plate with a reference drug, either cefotaxime, vancomycin or imipenem, was used as the positive growth control. Stock concentrations of reference antibiotics were prepared and frozen at -80° C. Upon preparation, the control plates were sealed and stored in the refrigerator for up to 1 week prior to use; however, imipenem control plates had to be prepared just prior to use. All test plates were used within 24 hours of preparation.
# Satisfactory results were obtained where the inoculum contained about 10^4 colony forming units (cfu) ±0.5 logs. Starting with pure cultures of the test isolates on agar plates, a few isolated colonies were transferred to a tube of nutrient broth and allowed to grow 4-6 hours at 35°-36° C. to reach log-phase growth. Dropwise addition of the broth culture to PBS was done to match a 0.5 McFarland turbidity standard equal to 10^8 cfu/mL. This was further diluted ten-fold in PBS to reach a working inoculum concentration of 10^7 cfu/mL. When 1 μL of the working inoculum was applied to the agar surface a concentration of about 10^4 cfu per spot was obtained.
# Disposable sterile 1 μL loops were used to inoculate test plates, with each isolate in a designated grid on the agar plate. An alternate method of inoculation involved the use of a replica plater, a device with 48 steel pins allowing the simultaneous inoculation of multiple isolates. After the spots had dried, the plates were incubated at 35°-36° C. for 16-20 hours. Endpoints were assessed as the minimum inhibitory concentration (MIC) of antimicrobial agent.
# The novel agents of this invention are notable for their enhanced activity against S. aureus Col and Enterococci (E. faecium and E. faecalis). The S. aureus Col strain is a high-level PBP2a producer, whereas S. aureus Col 8A, its isogenic partner, lacks PBP2a. […] Thus, the compounds of the present invention are effective against PBP2a-producing bacteria.
row,Structure (SMILES),MIC [µg/mL]
1,"O=C(Cc1ccccc1)N[C@@H]1C(=O)N2C(C(=O)O)=C(Sc3ccc(F)cc3)CS[C@H]12 [Cmpd 1, (7R)-7-[(Phenylacetyl)amino]-3-(p-fluorophenylthio)-3-cephem-4-carboxylic acid]",16
2,"N=C(N)SCc1cccc(SC2=C(C(=O)O)N3C(=O)[C@@H](NC(=O)Cc4ccccc4)[C@H]3SC2)c1 [Cmpd 80, (7R)-7-[(Phenylacetyl)amino]-3-(3-isothiouroniummethylphenylthio)-3-cephem-4-carboxylate, inner salt]",2
3,O=C(Cc1ccccc1)N[C@@H]1C(=O)N2C(C(=O)O)=C(Sc3ccccc3CSc3ncccn3)CS[C@H]12 [Cmpd 75],8
4,"CSCC(=O)N[C@@H]1C(=O)N2C(C(=O)O)=C(Sc3ccccc3CSC(=N)NC(=N)N)CS[C@H]12 [Cmpd 126, (7R)-7-[(methylthioacetyl)amino]-3-(2-(N-amidino)isothiouroniummethylphenylthio)-3-cephem-4-carboxylate, inner salt]",8
5,"N#CCC(=O)N[C@@H]1C(=O)N2C(C(=O)O)=C(Sc3ccc(CSC(=N)N)cc3I)CS[C@H]12 [Cmpd 66, (7R)-7-[(Cyanoacetyl)amino]-3-(4-isothiouroniummethyl-2-iodophenylthio)-3-cephem-4-carboxylate, inner salt]",2
6,"O=C(Cc1ccccc1)N[C@@H]1C(=O)N2C(C(=O)O)=C(Sc3ccc(Br)cc3Br)CS[C@H]12 [Cmpd 39, (7R)-7-[(Phenylacetyl)amino]-3-(2,4-dibromophenylthio)-3-cephem-4-carboxylic acid]",0.5
7,"O=C(Cc1ccccc1)N[C@@H]1C(=O)N2C(C(=O)O)=C(Sc3ccccc3-c3cccs3)CS[C@H]12 [Cmpd 37, (7R)-7-[(Phenylacetyl)amino]-3-(2-(2-thienyl)phenylthio)-3-cephem-4-carboxylic acid]",2
8,"Nc1nc(-c2ccccc2)c(SC2=C(C(=O)O)N3C(=O)[C@@H](NC(=O)Cc4ccccc4)[C@H]3SC2)s1 [Cmpd 92, (7R)-7-[(Phenylacetyl)amino]-3-(2-amino-4-phenylthiazol-5-ylthio)-3-cephem-4-carboxylic acid]",2
9,O=C(Cc1ccccc1)N[C@@H]1C(=O)N2C(C(=O)O)=C(Sc3ccccc3CSc3ccncc3)CS[C@H]12 [Cmpd 70],4
10,"O=C(Cc1ccccc1)N[C@@H]1C(=O)N2C(C(=O)O)=C(Sc3ccnn3-c3ccccn3)CS[C@H]12 [Cmpd 105, (7R)-7-[(Phenylacetyl)amino]-3-(1-N-(pyridin-2-yl)pyrazol-5-ylthio)-3-cephem-4-carboxylic acid]",4
11,"O=C(Cc1ccc(Cl)cc1)N[C@@H]1C(=O)N2C(C(=O)O)=C(Sc3cccnc3-c3ccccc3)CS[C@H]12 [Cmpd 84, (7R)-7-[(4-Chlorophenylacetyl)amino]-3-(2-phenylpyridin-3-ylthio)-3-cephem-4-carboxylic acid]",2
12,"N=C(N)SCc1ccccc1SC1=C(C(=O)O)N2C(=O)[C@@H](NC(=O)Cc3ccc(CN)cc3)[C@H]2SC1 [Cmpd 124, (7R)-7-[((4-aminomethylphenyl)acetyl)amino]-3-(2-isothiouroniummethylphenylthio)-3-cephem-4-carboxylate, trifluoroacetic acid salt]",4
13,"N=C(N)SCc1ccccc1SC1=C(C(=O)O)N2C(=O)[C@@H](NC(=O)Cc3ccc(O)cc3)[C@H]2SC1 [Cmpd 99, (7R)-7-[((4-Hydroxyphenyl)acetyl)amino]-3-(2-isothiouroniummethylphenylthio)-3-cephem-4-carboxylic acid, inner salt]",4
14,"N=C(N)SCc1ccccc1SC1=C(C(=O)O)N2C(=O)[C@@H](NC(=O)/C(=N\O)c3ccccc3)[C@H]2SC1 [Cmpd 136, (7R)-7-[(Z)-2-(Phenyl)-2-(hydroxyimino)acetamido]-3-(2-isothiouroniummethylphenylthio)-3-cephem-4-carboxylate, inner salt]",2
15,"N=C(N)NC(=N)SCc1ccc(SC2=C(C(=O)O)N3C(=O)[C@@H](NC(=O)Cc4ccccc4)[C@H]3SC2)c(I)c1 [Cmpd 60, (7R)-7-[(Phenylacetyl)amino]-3-(4-(N-amidino)isothiouroniummethyl-2-iodophenylthio)-3-cephem-4-carboxylate, inner salt]",0.5
16,O=C(Cc1ccccc1)N[C@@H]1C(=O)N2C(C(=O)O)=C(Sc3ccccc3CSC3=NCCN3)CS[C@H]12 [Cmpd 72],4
17,"O=C(COc1ccc(Cl)cc1)N[C@@H]1C(=O)N2C(C(=O)O)=C(Sc3ccccc3I)CS[C@H]12 [Cmpd 30, (7R)-7-[(p-Chlorophenoxyacetyl)amino]-3-(o-iodophenylthio)-3-cephem-4-carboxylic acid]",0.5
18,"O=C(Cc1ccccc1)N[C@@H]1C(=O)N2C(C(=O)O)=C(Sc3ccc(Cl)c(Cl)c3)CS[C@H]12 [Cmpd 18, (7R)-7-[(Phenylacetyl)amino]-3-(3,4-dichlorophenylthio)-3-cephem-4-carboxylic acid]",4
19,"O=C(Cc1ccccc1)N[C@@H]1C(=O)N2C(C(=O)O)=C(Sc3ccc(Br)cc3)CS[C@H]12 [Cmpd 5, (7R)-7-[(Phenylacetyl)amino]-3-(p-bromophenylthio)-3-cephem-4-carboxylic acid]",2
20,"O=C(Cc1cccs1)N[C@@H]1C(=O)N2C(C(=O)O)=C(Sc3ccnn3-c3ccccc3)CS[C@H]12 [Cmpd 116, (7R)-7-[(2-thienylacetyl)amino]-3-(1-N-phenylpyrazol-5-ylthio)-3-cephem-4-carboxylic acid]",4
21,"COc1ccc(CC(=O)N[C@@H]2C(=O)N3C(C(=O)O)=C(Sc4cc(Cl)ccc4Cl)CS[C@H]23)cc1 [Cmpd 32, (7R)-7-[(p-Methoxyphenylacetyl)amino]-3-(2,5-dichlorophenylthio)-3-cephem-4-carboxylic acid]",1
22,"NC(=NC1CC1)SCc1ccccc1SC1=C(C(=O)O)N2C(=O)[C@@H](NC(=O)Cc3ccccc3)[C@H]2SC1 [Cmpd 79, (7R)-7-[(Phenylacetyl)amino]-3-(2-N-cyclopropylisothiouroniummethylphenylthio)-3-cephem-4-carboxylate, inner salt]",4
23,"O=C(Cc1cccs1)N[C@@H]1C(=O)N2C(C(=O)O)=C(Sc3cc(Cl)ccc3Cl)CS[C@H]12 [Cmpd 26, (7R)-7-[(2-Thienylacetyl)amino]-3-(2,5-dichlorophenylthio)-3-cephem-4-carboxylic acid]",0.5
24,"C=Cc1ccccc1SC1=C(C(=O)O)N2C(=O)[C@@H](NC(=O)Cc3ccccc3)[C@H]2SC1 [Cmpd 36, (7R)-7-[(Phenylacetyl)amino]-3-(2-vinylphenylthio)-3-cephem-4-carboxylic acid]",2
25,"O=C(Cc1ccccc1)N[C@@H]1C(=O)N2C(C(=O)O)=C(Sc3cccc(Cl)c3Cl)CS[C@H]12 [Cmpd 24, (7R)-7-[(Phenylacetyl)amino]-3-(2,3-dichlorophenylthio)-3-cephem-4-carboxylic acid]",1
26,"O=C(Cc1ccccc1)N[C@@H]1C(=O)N2C(C(=O)O)=C(Sc3ccccc3Br)CS[C@H]12 [Cmpd 4, (7R)-7-[(Phenylacetyl)amino]-3-(o-bromophenylthio)-3-cephem-4-carboxylic acid]",1 to 2
27,"O=C(Cc1ccccc1)N[C@@H]1C(=O)N2C(C(=O)O)=C(Sc3cnnn3-c3ccccc3)CS[C@H]12 [Cmpd 91, (7R)-7-[(Phenylacetyl)amino]-3-(1-N-phenyl-1,2,3-triazol-5-ylthio)-3-cephem-4-carboxylic acid]",4
